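Interpolation was linear, between the two tested concentrations surrounding the appropriate level; five concentrations were tested over 48 hours in 96-well plates. Here, GI50 denotes the concentration required for 50% inhibition of growth. TGI marks complete inhibition of growth.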
Assays:
Experiment in all cases: DTP human tumour cell line panel, 48 h
K-562 leukemia = system: K-562 leukemia
A549 NSCLC = system: A549 NSCLC
786-0 renal = system: 786-0 renal
UACC-257 melanoma = system: UACC-257 melanoma
HT29 colon = system: HT29 colon
SK-MEL-5 melanoma = system: SK-MEL-5 melanoma
OVCAR-5 ovarian = system: OVCAR-5 ovarian
CAKI-1 renal = system: CAKI-1 renal

Row | SMILES | GI50 (K-562 leukemia) | TGI (K-562 leukemia) | GI50 (A549 NSCLC) | TGI (A549 NSCLC) | GI50 (786-0 renal) | TGI (786-0 renal) | GI50 (UACC-257 melanoma) | TGI (UACC-257 melanoma) | GI50 (HT29 colon) | TGI (HT29 colon) | GI50 (SK-MEL-5 melanoma) | TGI (SK-MEL-5 melanoma) | GI50 (OVCAR-5 ovarian) | TGI (OVCAR-5 ovarian) | GI50 (CAKI-1 renal) | TGI (CAKI-1 renal)
1 | C=C1C(=O)O[C@H]2[C@H]1CC/C(CNC(=O)/C=C/c1cc(OC)c(OC)c(OC)c1)=C\CC[C@@]1(C)O[C@@H]21 | 0.601 µM | 4.13 µM | 8.04 µM | 23.7 µM | 1.29 µM | 2.9 µM | 1.76 µM | 5.72 µM | 1.59 µM | 8.31 µM | 2.49 µM | 7.33 µM | 2.44 µM | 12.9 µM | – | –
2 | OC(Cc1ccncc1)C(Cl)(Cl)Cl (stereo unspecified) | > 100 µM | > 100 µM | > 100 µM | > 100 µM | > 100 µM | > 100 µM | > 100 µM | > 100 µM | > 100 µM | > 100 µM | – | – | > 100 µM | > 100 µM | 32.4 µM | > 100 µM
3 | O=C(c1ccccc1)c1ccccc1-c1ccccc1 | – | – | 4.87 µM | > 100 µM | 10.6 µM | 90.7 µM | 14.5 µM | > 100 µM | 0.986 µM | 14.3 µM | 3.2 µM | 12.5 µM | 14.6 µM | > 100 µM | 1.52 µM | 7.85 µM
4 | C[C@]12C[C@H](CCCCCCNCCOC(=O)NCCCc3ccc(N(CCCl)CCCl)cc3)C3=C4CCC(=O)C=C4CCC3C1CC[C@@H]2O (stereo partly specified) | 0.308 µM | 1.07 µM | – | – | 0.841 µM | 3.89 µM | 1.69 µM | 3.21 µM | – | – | 1.47 µM | 3.02 µM | 5.84 µM | 11 µM | 1.55 µM | 3.3 µM
5 | CCCCCCCCNc1cc2c3c(c1)CCCN3CCC2 | 0.433 µM | > 100 µM | 4.26 µM | 19.3 µM | 3.31 µM | 13.7 µM | 1.03 µM | 6.71 µM | 0.774 µM | 11.1 µM | 1.49 µM | 3.14 µM | 3.88 µM | 17.5 µM | – | –
6 | CC1(C)C2CCC13C(=O)C1OC3(C2)C2C(=O)c3cc4ccccc4cc3C(=O)C12 (stereo unspecified) | 4.92 µM | 33.7 µM | 26.2 µM | 76.3 µM | 6 µM | 36.6 µM | 20.8 µM | 64.8 µM | 11.3 µM | > 100 µM | – | – | 18.4 µM | > 100 µM | 1.29 µM | 5.33 µM
7 | COC(=O)NC(=O)c1cn(C2OC(CO)C(O)C2O)c(=O)[nH]c1=O (stereo unspecified) | – | > 100 µM | – | > 100 µM | – | > 100 µM | – | > 100 µM | – | > 100 µM | – | – | – | > 100 µM | – | > 100 µM
8 | CCOC(=O)c1c(C)nc2c(c1N)CC(=O)N2Cc1ccc(OC)cc1 | > 100 µM | > 100 µM | – | – | 3.45 µM | 27.8 µM | – | – | > 100 µM | > 100 µM | > 100 µM | > 100 µM | > 100 µM | > 100 µM | > 100 µM | > 100 µM
9 | Clc1nc(Cl)c2ncn(CC3(Cn4cnc5c(Cl)nc(Cl)nc54)COC3)c2n1 | – | – | 0.273 µM | 1.19 µM | 0.762 µM | 2.37 µM | 0.197 µM | 0.427 µM | 0.226 µM | > 100 µM | 0.259 µM | 0.855 µM | 0.634 µM | 1.2 µM | 0.195 µM | 0.496 µM
10 | CN1CCC2(CC1)ONC1=NCCN12 | 37.7 µM | > 100 µM | – | – | 15.4 µM | 53.8 µM | > 100 µM | > 100 µM | 53.7 µM | > 100 µM | 59.8 µM | > 100 µM | – | – | 30.6 µM | 90 µM
11 | Cc1cccc(/C=C/c2c(C(=O)/C=C/c3ccccc3)c(C)nc3ccccc23)c1 | – | – | 1.91 µM | 4.76 µM | 1.62 µM | 3.11 µM | 1.65 µM | 3.28 µM | 2.12 µM | 16.9 µM | 1.64 µM | 2.99 µM | 1.98 µM | 3.56 µM | 1.29 µM | 2.59 µM
12 | COc1cc(/C=C\c2cc(OC)c(OC)c(OC)c2)cc(NC(=O)/C=C/c2cc(OC)c(OC)c(OC)c2)c1OC | – | – | 4.49 µM | > 100 µM | 6.22 µM | > 100 µM | 10.1 µM | > 100 µM | 3.87 µM | > 100 µM | 1.66 µM | 3.97 µM | > 100 µM | > 100 µM | 2.8 µM | > 100 µM
13 | CCN(Cc1cc(Nc2nc(C)cn3c(-c4cn[nH]c4)cnc23)sn1)C(C)(C)CO | – | – | 0.0543 µM | 2.21 µM | 0.0473 µM | 2.73 µM | 0.622 µM | 9.93 µM | 0.0725 µM | 0.812 µM | 0.222 µM | 2.08 µM | 0.0676 µM | 10.7 µM | 0.0358 µM | 11.5 µM
14 | COC(=O)C1CC23CCCN4CCC5(c6ccccc6N(C=O)C15CC2)C43 (stereo unspecified) | – | – | – | > 100 µM | – | > 100 µM | – | > 100 µM | – | > 100 µM | – | > 100 µM | – | > 100 µM | – | > 100 µM

— PubChem BioAssay (NCI)
